Reference: ChEMBL document CHEMBL5154921, “Discovery and Characterization of the First Nonpeptide Antagonists for the Relaxin-3/RXFP3 System” (J Med Chem, 2022)
Calls of active or inactive are those of the source. No cut-off for these calls is given here.

Legend:
[1] = biological target: Histamine H1 receptor (Homo sapiens) (UniProt P35367); assay: Inhibition of histamine H1 receptor (unknown origin) at 10 uM relative to control
[2] = biological target: 5-hydroxytryptamine receptor 3A (Homo sapiens) (UniProt P46098); assay: Inhibition of serotonin 5-HT3 receptor (unknown origin) at 10 uM relative to control
[3] = biological target: 5-hydroxytryptamine receptor 1D (Homo sapiens) (UniProt P28221); assay: Inhibition of serotonin 5-HT1D receptor (unknown origin) at 10 uM relative to control
[4] = biological target: Relaxin-3 receptor 1 (Homo sapiens) (UniProt Q9NSD7); assay: Negative allosteric modulator activity at human RXFP3 expressed in CHO-K1 cells assessed as forskolin-induced cAMP accumulation at 3 to 30 uM measured after 30 mins in presence of relaxin-3 by TR-FRET assay; type: functional, cell-based; conditions: filed as negative allosteric modulator, dose 3-30 µM
Homo sapiens = species: Homo sapiens; assay: Inhibition of GABAA receptor (unknown origin) at 10 uM relative to control
[5] = biological target: Mu-type opioid receptor (Homo sapiens) (UniProt P35372); assay: Inhibition of opioid u receptor (unknown origin) at 10 uM relative to control
Chain of Mu-type opioid receptor (Homo sapiens) (P35372 whole entry): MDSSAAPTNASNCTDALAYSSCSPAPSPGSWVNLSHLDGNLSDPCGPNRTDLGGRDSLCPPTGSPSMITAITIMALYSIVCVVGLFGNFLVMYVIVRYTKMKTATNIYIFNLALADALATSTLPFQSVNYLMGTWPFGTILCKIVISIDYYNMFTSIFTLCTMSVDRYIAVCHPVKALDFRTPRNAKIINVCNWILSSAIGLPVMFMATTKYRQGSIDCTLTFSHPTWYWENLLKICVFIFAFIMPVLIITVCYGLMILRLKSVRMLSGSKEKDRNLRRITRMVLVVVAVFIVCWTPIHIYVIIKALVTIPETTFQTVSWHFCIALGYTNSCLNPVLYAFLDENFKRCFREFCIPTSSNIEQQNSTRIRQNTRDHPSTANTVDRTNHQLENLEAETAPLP

[6] = biological target: Relaxin-3 receptor 1 (Homo sapiens) (UniProt Q9NSD7); assay: Negative allosteric modulator activity at human RXFP3 expressed in CHO-K1 cells assessed as [35S]GTPgammaS binding at 10 to 30 uM incubated for 1 hr by [35S]GTP-gammaS binding assay; type: functional, cell-based; conditions: filed as negative allosteric modulator, dose 10-30 µM
[7] = Efflux ratio of apparent permeability across basolateral to apical side over apical to basolateral side in MDCK-MDR1 cells measured upto 90 min by LC-MS/MS analysis; type: ADME, cell-based, Canis lupus familiaris; conditions: dog, mdck-mdr1, 1.5 h
[8] = biological target: Sigma intracellular receptor 2 (Homo sapiens, UniProt Q5BJF2); assay: Inhibition of sigma-2 receptor (unknown origin) at 10 uM relative to control
[9] = Apparent permeability of the compound across apical to basolateral side in MDCK-MDRI cells measured upto 90 min by LC-MS/MS analysis; type: ADME, cell-based, Canis lupus familiaris; conditions: dog, mdck-mdr1, 1.5 h
[10] = Tmax in Wistar rat brain at 10 mg/kg, ip measured upto 8 hrs post dose by LC-MS/MS analysis; type: ADME, organism-based; conditions: in vivo
[11] = biological target: Delta-type opioid receptor (Homo sapiens) (UniProt P41143); assay: Inhibition of opioid delta receptor (unknown origin) at 10 uM relative to control
Chain of Delta-type opioid receptor (Homo sapiens) (P41143 whole entry): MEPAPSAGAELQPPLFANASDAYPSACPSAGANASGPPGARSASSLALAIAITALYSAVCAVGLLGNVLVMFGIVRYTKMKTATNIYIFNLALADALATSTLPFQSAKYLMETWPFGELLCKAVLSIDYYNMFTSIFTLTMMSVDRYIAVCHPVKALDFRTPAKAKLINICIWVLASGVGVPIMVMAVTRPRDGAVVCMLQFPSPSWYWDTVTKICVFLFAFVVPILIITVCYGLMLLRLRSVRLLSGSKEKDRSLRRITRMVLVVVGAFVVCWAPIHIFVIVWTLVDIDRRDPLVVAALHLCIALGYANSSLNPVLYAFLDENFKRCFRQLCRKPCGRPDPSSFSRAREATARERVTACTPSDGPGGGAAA

Rattus norvegicus = assay: In vivo antagonist activity at RXFP3 in Wistar rat assessed as decrease in R3/I5 induced food intake at 10 mg/kg, ip administered 1 hr prior to R3/I5 treatment and measured after 2 hrs; type: functional, organism-based; conditions: time 3.0 hrs
[12] = biological target: Relaxin-3 receptor 2 (Homo sapiens) (UniProt Q8TDU9); assay: Antagonist activity at human RXFP4 expressed […]-K1 cells assessed as forskolin-induced cAMP accumulation at 100 uM incubated for 30 mins in presence of relaxin 3 relative to control; type: functional, cell-based; design: scale not given: the % may be the effect or the level left
Chain of Relaxin-3 receptor 2 (Homo sapiens) (Q8TDU9 whole entry): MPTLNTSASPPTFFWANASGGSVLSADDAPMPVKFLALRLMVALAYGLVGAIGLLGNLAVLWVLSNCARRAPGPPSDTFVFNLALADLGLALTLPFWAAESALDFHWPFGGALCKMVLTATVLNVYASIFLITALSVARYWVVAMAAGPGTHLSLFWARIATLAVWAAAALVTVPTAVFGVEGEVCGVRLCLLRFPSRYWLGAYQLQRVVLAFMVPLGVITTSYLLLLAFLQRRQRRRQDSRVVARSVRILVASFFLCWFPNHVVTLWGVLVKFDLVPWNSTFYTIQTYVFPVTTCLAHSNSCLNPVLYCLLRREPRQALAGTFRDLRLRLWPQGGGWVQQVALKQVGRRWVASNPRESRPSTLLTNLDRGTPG

[13] = AUCinfinity in Wistar rat plasma at 10 mg/kg, ip measured upto 8 hrs post dose by LC-MS/MS analysis; type: ADME, organism-based; design: dose 10 mg/kg, time < 8 hrs, route ip; conditions: in vivo
[14] = biological target: Alpha-1A adrenergic receptor (Homo sapiens) (UniProt P35348); assay: Inhibition of adrenergic alpha-1A receptor (unknown origin) at 10 uM relative to control
Chain of Alpha-1A adrenergic receptor (Homo sapiens) (P35348 whole entry): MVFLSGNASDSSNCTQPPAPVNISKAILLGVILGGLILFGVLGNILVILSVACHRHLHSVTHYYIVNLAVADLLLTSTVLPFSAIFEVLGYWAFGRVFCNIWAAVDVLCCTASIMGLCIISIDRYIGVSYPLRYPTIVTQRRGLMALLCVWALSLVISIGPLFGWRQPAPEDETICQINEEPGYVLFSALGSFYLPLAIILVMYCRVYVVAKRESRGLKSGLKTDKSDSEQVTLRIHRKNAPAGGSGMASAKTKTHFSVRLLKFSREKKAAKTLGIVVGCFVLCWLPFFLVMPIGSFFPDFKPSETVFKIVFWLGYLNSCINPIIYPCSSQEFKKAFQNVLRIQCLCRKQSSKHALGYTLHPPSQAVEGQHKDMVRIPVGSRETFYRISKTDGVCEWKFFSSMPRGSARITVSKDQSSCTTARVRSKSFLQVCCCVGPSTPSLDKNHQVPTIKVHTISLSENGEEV

[15] = biological target: Muscarinic acetylcholine receptor M1 (Homo sapiens) (UniProt P11229); assay: Inhibition of muscarinic M1 receptor (unknown origin) at 10 uM relative to control
Relaxin-3 receptor 1 [16] = biological target: T1, Relaxin-3 receptor 1 (Homo sapiens, UniProt Q9NSD7); assay: Antagonist activity at human RXFP3 expressed in CHO-K1 cells assessed as [35S]GTPgammaS binding incubated for 1 hr by [35S]GTP-gammaS binding assay; type: functional, cell-based
T1 sequence (Q9NSD7 whole entry): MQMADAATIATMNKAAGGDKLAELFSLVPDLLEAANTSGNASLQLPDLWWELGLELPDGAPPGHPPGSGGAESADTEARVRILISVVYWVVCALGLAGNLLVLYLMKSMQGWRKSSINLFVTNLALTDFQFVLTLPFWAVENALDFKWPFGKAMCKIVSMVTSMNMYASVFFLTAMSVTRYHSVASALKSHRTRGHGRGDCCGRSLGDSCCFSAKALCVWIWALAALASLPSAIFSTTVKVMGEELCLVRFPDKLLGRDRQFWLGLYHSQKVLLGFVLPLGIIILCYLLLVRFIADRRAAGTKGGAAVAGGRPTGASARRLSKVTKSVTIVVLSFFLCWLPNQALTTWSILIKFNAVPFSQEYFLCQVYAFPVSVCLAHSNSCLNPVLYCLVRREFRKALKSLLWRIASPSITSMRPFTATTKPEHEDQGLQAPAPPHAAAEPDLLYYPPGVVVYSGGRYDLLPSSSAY

[17] = biological target: Histamine H4 receptor (Homo sapiens) (UniProt Q9H3N8); assay: Inhibition of histamine H4 receptor (unknown origin) at 10 uM relative to control
[18] = biological target: Alpha-2C adrenergic receptor (Homo sapiens) (UniProt P18825); assay: Inhibition of adrenergic alpha-2C receptor (unknown origin) at 10 uM relative to control
[19] = biological target: 5-hydroxytryptamine receptor 2B (Homo sapiens) (UniProt P41595); assay: Inhibition of serotonin 5-HT2B receptor (unknown origin) at 10 uM relative to control
Chain of 5-hydroxytryptamine receptor 2B (Homo sapiens) (P41595 whole entry): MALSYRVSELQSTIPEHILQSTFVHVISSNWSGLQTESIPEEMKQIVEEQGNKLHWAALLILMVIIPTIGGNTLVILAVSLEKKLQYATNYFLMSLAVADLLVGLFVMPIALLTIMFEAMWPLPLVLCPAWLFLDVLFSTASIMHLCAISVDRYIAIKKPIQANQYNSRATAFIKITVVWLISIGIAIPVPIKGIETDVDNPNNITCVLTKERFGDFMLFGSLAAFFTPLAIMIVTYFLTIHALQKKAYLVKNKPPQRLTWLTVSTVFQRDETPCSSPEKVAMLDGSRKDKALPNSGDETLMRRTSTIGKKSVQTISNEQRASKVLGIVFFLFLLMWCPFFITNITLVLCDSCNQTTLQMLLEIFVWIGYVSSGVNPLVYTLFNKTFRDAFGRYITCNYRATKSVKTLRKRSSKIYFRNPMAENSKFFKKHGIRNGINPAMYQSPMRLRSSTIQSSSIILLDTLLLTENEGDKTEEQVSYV

[20] = Unbound clearence in Wistar rat plasma at 10 mg/kg, ip measured upto 8 hrs post dose by LC-MS/MS analysis; type: ADME, organism-based; conditions: in vivo
[21] = AUCinfinity in Wistar rat brain at 10 mg/kg, ip measured upto 8 hrs post dose by LC-MS/MS analysis; type: ADME, organism-based; design: dose 10 mg/kg, time < 8 hrs, route ip
Relaxin-3 receptor 1 [22] = biological target: T1, Relaxin-3 receptor 1; assay: Antagonist activity at human RXFP3 expressed in CHO-K1 cells assessed as inhibition of relaxin-3 stimulated ERK1/2 phosphorylation preincubated for 15 mins followed by relaxin-3 addition for 5 mins; type: functional, cell-based
[23] = biological target: Beta-2 adrenergic receptor (Homo sapiens) (UniProt P07550); assay: Inhibition of adrenergic beta-2 receptor (unknown origin) at 10 uM relative to control
[24] = biological target: Alpha-1B adrenergic receptor (Homo sapiens) (UniProt P35368); assay: Inhibition of adrenergic alpha-1B receptor (unknown origin) at 10 uM relative to control
Chain of Alpha-1B adrenergic receptor (Homo sapiens) (P35368 whole entry): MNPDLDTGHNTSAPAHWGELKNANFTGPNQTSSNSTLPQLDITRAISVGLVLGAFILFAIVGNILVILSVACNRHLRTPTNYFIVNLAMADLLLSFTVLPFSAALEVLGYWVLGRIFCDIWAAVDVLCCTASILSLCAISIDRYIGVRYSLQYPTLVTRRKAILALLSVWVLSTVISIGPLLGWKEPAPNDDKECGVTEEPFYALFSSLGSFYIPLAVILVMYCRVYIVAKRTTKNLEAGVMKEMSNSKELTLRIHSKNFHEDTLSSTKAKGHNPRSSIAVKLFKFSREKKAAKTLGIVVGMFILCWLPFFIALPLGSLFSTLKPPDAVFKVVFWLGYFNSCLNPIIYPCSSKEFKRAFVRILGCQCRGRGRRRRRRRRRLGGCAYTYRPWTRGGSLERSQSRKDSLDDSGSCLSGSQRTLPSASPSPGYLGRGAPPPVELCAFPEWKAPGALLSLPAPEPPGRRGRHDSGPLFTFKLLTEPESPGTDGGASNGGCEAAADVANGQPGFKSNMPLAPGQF

[25] = biological target: Muscarinic acetylcholine receptor M4 (Homo sapiens) (UniProt P08173); assay: Inhibition of muscarinic M4 receptor (unknown origin) at 10 uM relative to control
Chain of Muscarinic acetylcholine receptor M4 (Homo sapiens) (P08173 whole entry): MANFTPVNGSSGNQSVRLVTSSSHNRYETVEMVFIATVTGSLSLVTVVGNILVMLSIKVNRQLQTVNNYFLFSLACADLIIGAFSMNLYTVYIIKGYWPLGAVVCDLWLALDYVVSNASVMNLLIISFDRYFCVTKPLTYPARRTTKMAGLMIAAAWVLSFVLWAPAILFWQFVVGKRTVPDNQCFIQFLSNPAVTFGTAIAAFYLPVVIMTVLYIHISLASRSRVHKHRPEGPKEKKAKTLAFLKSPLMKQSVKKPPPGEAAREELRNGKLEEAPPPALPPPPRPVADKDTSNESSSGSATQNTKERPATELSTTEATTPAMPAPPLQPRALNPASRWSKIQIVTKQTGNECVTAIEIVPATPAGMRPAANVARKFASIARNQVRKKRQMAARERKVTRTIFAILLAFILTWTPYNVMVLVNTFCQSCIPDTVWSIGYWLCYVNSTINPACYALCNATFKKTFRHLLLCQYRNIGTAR

[26] = biological target: 5-hydroxytryptamine receptor 1E (Homo sapiens) (UniProt P28566); assay: Inhibition of serotonin 5-HT1E receptor (unknown origin) at 10 uM relative to control
Chain of 5-hydroxytryptamine receptor 1E (Homo sapiens) (P28566 whole entry): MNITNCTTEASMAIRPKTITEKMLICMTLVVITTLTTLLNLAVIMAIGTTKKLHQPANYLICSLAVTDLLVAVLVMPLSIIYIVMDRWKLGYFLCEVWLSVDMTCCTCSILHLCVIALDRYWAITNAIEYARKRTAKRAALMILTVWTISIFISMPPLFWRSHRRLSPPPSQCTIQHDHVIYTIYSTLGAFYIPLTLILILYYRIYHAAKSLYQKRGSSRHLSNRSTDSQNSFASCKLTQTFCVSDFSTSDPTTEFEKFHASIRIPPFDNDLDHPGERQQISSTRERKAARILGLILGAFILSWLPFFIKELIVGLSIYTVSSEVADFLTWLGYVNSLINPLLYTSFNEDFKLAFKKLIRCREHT

[27] = biological target: 5-hydroxytryptamine receptor 1B (Homo sapiens) (UniProt P28222); assay: Inhibition of serotonin 5-HT1B receptor (unknown origin) at 10 uM relative to control
Chain of 5-hydroxytryptamine receptor 1B (Homo sapiens) (P28222 whole entry): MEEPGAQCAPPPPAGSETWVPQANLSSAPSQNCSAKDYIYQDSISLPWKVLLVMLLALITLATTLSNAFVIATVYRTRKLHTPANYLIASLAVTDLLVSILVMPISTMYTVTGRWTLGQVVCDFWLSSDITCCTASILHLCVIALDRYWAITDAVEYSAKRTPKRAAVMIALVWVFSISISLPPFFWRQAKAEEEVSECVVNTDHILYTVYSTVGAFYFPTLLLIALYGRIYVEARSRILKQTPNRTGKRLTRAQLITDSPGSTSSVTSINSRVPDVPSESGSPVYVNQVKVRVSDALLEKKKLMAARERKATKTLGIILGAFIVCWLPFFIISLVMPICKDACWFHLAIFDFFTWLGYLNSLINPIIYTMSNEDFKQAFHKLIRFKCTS

[28] = biological target: Muscarinic acetylcholine receptor M3 (Homo sapiens) (UniProt P20309); assay: Inhibition of muscarinic M3 receptor (unknown origin) at 10 uM relative to control
Chain of Muscarinic acetylcholine receptor M3 (Homo sapiens) (P20309 whole entry, looked up): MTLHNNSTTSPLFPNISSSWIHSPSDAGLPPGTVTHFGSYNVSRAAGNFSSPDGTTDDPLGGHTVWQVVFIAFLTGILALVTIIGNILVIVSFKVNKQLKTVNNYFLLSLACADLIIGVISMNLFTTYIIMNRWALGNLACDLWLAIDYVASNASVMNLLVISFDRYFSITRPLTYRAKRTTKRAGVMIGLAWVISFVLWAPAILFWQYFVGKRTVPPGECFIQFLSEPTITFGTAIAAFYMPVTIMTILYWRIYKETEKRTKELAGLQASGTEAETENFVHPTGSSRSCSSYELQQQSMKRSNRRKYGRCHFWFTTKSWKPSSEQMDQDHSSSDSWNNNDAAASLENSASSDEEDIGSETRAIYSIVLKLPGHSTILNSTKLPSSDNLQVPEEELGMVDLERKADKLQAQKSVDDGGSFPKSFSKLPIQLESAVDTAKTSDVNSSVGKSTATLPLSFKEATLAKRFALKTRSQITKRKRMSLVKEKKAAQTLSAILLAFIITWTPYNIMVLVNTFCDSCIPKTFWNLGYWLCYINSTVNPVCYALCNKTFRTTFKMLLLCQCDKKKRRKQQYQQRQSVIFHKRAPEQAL

[29] = Cmax in Wistar rat plasma at 10 mg/kg, ip measured upto 8 hrs post dose by LC-MS/MS analysis; type: ADME, organism-based; design: time < 8 hrs, dose 10 mg/kg, route ip; conditions: in vivo
[30] = biological target: Muscarinic acetylcholine receptor M2 (Homo sapiens) (UniProt P08172); assay: Inhibition of muscarinic M2 receptor (unknown origin) at 10 uM relative to control

Chain of Histamine H1 receptor (Homo sapiens) (P35367 whole entry): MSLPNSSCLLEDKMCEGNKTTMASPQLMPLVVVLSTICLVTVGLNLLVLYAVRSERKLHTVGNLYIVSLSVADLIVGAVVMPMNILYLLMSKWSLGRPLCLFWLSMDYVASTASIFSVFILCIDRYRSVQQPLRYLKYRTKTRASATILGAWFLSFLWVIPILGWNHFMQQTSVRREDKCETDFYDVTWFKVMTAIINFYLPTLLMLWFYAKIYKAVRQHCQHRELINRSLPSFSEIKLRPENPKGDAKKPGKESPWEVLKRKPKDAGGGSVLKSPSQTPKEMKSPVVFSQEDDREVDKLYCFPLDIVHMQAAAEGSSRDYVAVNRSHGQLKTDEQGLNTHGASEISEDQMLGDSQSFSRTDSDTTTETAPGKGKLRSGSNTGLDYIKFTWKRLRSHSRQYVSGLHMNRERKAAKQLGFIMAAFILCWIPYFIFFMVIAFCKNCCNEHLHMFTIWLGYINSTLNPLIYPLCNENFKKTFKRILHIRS

Q: Which inhibition [1] does the source give for `O=C(Nc1ccc(-c2nc(-c3ccc(Cl)cc3)no2)cc1)C1CC(=O)N(Cc2ccco2)C1` (configuration not stated) here?
A: The inhibition was < 50%.

Q: What about the inhibition [2] of the same molecule?
A: The inhibition was < 50%.

Q: What about the inhibition [3] of the same molecule?
A: Its inhibition is < 50%.

Q: And the Activity [4]?
A: Its Activity is “Active”.

Q: And the inhibition (Homo sapiens)?
A: Its inhibition is < 50%.

Q: And the inhibition [5]?
A: Its inhibition is < 50%.

Q: What about the Activity [6] of the same molecule?
A: Its Activity is “Active”.

Q: And the Ratio [7]?
A: The Ratio was 1.

Q: And the inhibition [8]?
A: Its inhibition is 95%.

Q: And the Papp [9]?
A: Its Papp is 1.3 10^-6 cm/s.

Q: What about the Tmax [10] of the same molecule?
A: The Tmax was 2 h.

Q: And the inhibition [11]?
A: Its inhibition is < 50%.

Q: What about the Activity (Rattus norvegicus) of the same molecule?
A: The Activity was “Active”.

Q: And the Activity [12]?
A: Its Activity is < 30%.

Q: What about the AUC [13] of the same molecule?
A: The AUC was 5352 ng·h/mL.

Q: And the inhibition [14]?
A: Its inhibition is < 50%.

Q: And the inhibition [15]?
A: The inhibition was < 50%.

Q: What about the IC50 (Relaxin-3 receptor 1 [16]) of the same molecule?
A: Its IC50 is 4.52 µM.

Q: And the inhibition [17]?
A: The inhibition was < 50%.

Q: What about the inhibition [18] of the same molecule?
A: The inhibition was < 50%.

Q: What about the inhibition [19] of the same molecule?
A: Its inhibition is < 50%.

Q: What about the CL free [20] of the same molecule?
A: Its CL free is 43.8 mL/min/kg.

Q: And the AUC(0-inf) [21]?
A: The AUC(0-inf) was 12.5 ng·h/mL.

Q: And the IC50 (Relaxin-3 receptor 1 [22])?
A: The IC50 was 13.9 µM.

Q: What about the inhibition [23] of the same molecule?
A: The inhibition was < 50%.

Q: And the inhibition [24]?
A: Its inhibition is < 50%.

Q: And the inhibition [25]?
A: Its inhibition is < 50%.

Q: What about the inhibition [26] of the same molecule?
A: The inhibition was < 50%.

Q: What about the inhibition [27] of the same molecule?
A: Its inhibition is < 50%.

Q: And the inhibition [28]?
A: Its inhibition is < 50%.

Q: What about the Cmax [29] of the same molecule?
A: Its Cmax is 1401 ng/mL.

Q: And the inhibition [30]?
A: Its inhibition is 51%.
